In the test the test system is ZSF1-SU rats. Briefly: HFpEF induced PH rat model, ZSF1 rats challenged with semaxanib (Example 10). The note with it: relative to ZSF1-SU/PBS. It is filed as in vivo. The procedure:
The effects of an ActRIIA-mFc fusion polypeptide (SEQ ID NO: 56) was examined in a rat model of left ventricular diastolic dysfunction (also referred to as HEpEF) group 2 (subgroup 2.2) pulmonary hypertension (PH). In this model, ZSF1-Lepr^faLepr^cp/Crl rats were challenged with semaxanib to induce HFpEF-PH(l).
Forty ZSF1 Lepr^faLepr^cp/Crl male […] (8 wks old) and five lean rats were subcutaneously administered with a single dose of semaxanib (100 mg/kg) at day 0, and five lean rats were included as normal control. Six weeks after semaxanib (SU5416) treatment, Thirty-six ZSF1 Lepr^faLepr^cp/Crl rats were randomized into four groups: i) nine rats were injected subcutaneously with vehicle control (phosphate buffered saline (PBS)), twice weekly for 8 weeks starting from day 42 after semaxanib treatment, “ZSF1-SU/PBS”; a ii) ten rats were injected subcutaneously with ActRIIA-mFc at a dose of 1 mg/kg twice weekly for 8 weeks starting from day 42 after semaxanib treatment, “ZSF1-SU/ActRIIA-mFc 1 mpk”: a iii) nine rats were injected subcutaneously with ActRIIA-mFc at a dose of 3 mg/kg twice weekly for 8 weeks starting from day 42 after semaxanib treatment, “ZSF1-SU/ActRIIA-mFc 3 mpk”; and a iv) eight rats were injected subcutaneously with ActRIIA-mFc at a dose of 10 mg/kg twice weekly for 8 weeks starting from day 42 after semaxanib treatment, “ZSF1-SU/ActRIIA-mFc 10 mpk”. At the end of the study, echocardiography and pressure-volume catheter were performed to measure left and right ventricular remodeling and functional changes before animals were euthanized for heart and lung collection. Hearts and lungs of each rat were weighed, fixed in 10% formalin, embedded in paraffin, and sectioned for Masson's trichrome stain to assess fibrosis. Serum and urine samples were collected at the end of the study.
Rats were fasted overnight to measure fasting blood glucose levels at week 14 (before treatments started), week 18 (4 weeks after treatments), and week 22, and oral glucose tolerance test was performed at week 22. Blood glucose levels were measured with a glucometer after bleeding tail vein with a 27G needle. To prepare oral glucose tolerance test, 40% glucose stock solution run through a filter to sterilize it. After fasting overnight, rat body weight was measured. Blood glucose level was detected. Then 40% glucose solution was administered via oral gavage according to body weight (2 g/kg). Blood glucose levels were measured at 30, 60, 90, 120 minutes.
Prior to euthanization, in vivo cardiac function was assessed by transthoracic echocardiography (Acuson P300, 18 MHz linear transducer; Siemens) in lightly anesthetized rats as described (2). From left ventricle short axis view, M-mode echocardiogram was acquired to measure interventricular septal thickness at end diastole (IVSd), left ventricular posterior wall thickness at end diastole (LVPWd), left ventricular end diastolic diameter (LVEDD), and left ventricular end systolic diameter (LVESD). Left ventricular mass (LVM) was assessed by the equation: 1.05 [(LVEDD+LVPTD+IVSd)^3-LVEDD^3]. Early diastolic filling peak velocity (E), early diastolic mitral annular velocity (E′), and isovolumetric relaxation time (IVRT) were measured from the medial or septal wall at the mitral valve level from tissue Doppler image. LV diastolic function was assessed by measuring the E/E′ ratio and IVRT. Pulmonary arterial acceleration time (PAAT), a parameter of right ventricular function, was also measured.
Fourteen weeks after semaxanib treatment, rats were anesthetized with ketamine (100 mg/kg) and xylazine (5 mg/kg) at the end of the experiment to evaluate cardiac and pulmonary hemodynamics. The respiration was supported by a small animal ventilator. Thoracotomy was made through 4-5 intercostal space, and the heart was exposed. A pressure-volume catheter (2.0-Fr, SPR-869, Millar Instruments, Houston, TX, USA) was be inserted into the left ventricle and right ventricle from the apex. […]

The mark [1] stands for this setting: 1 mpk, 3 mpk and 10 mpk, FIGS. 41-43.

With “ActRIIA-mFc: ActRIIA-mFc fusion polypeptide (SEQ ID NO: 56); extracellular domain fused to murine IgG2a Fc domain with a linker”, under setting [1], the fasting blood glucose result is recorded as “significantly reduced fasting blood glucose”, the “glucose level in urine” value is “decreased glucose level in urine” and the “glucose tolerance (oral glucose tolerance test)” value is given as “improved glucose tolerance”. In addition, the “E/E′ ratio” value (3 mpk and 10 mpk s.c. twice weekly for 8 weeks from day 42 after semaxanib, FIG. 29) was “reduced E/E′ ratio”. The IVRT result (3 mpk and 10 mpk s.c. twice weekly for 8 weeks from day 42 after semaxanib, FIG. 30) is given as “decreased IVRT”. Moreover, for the setting “3 mpk and 10 mpk s.c. twice weekly for 8 weeks from day 42 after semaxanib, FIG. 34”, the RVFWT entry is given as “significantly reduced elevated RVFWT”. Moreover, for the setting “3 mpk and 10 mpk s.c. twice weekly for 8 weeks from day 42 after semaxanib, FIG. 35”, the PAAT entry is on record as “reduced PAAT”. Also, the RVSP entry (3 mpk and 10 mpk s.c. twice weekly for 8 weeks from day 42 after semaxanib, FIG. 36) is “reduced elevated RVSP”. Besides, where the note is “3 mpk and 10 mpk s.c. twice weekly for 8 weeks from day 42 after semaxanib, FIGS. 31-33”, the “left heart remodeling (HW/TL, IVSd, LVM)” value is reported as “significantly reduced left heart remodeling”. Moreover, the “fibrosis in LV” value (s.c. twice weekly for 8 weeks, dose not given, FIG. 37) was “significantly reduced the increased fibrosis”. The “fibrosis in RV” value (s.c. twice weekly for 8 weeks, dose not given, FIG. 38) is “significantly reduced the increased fibrosis”. Moreover, the fibrosis in lung result (s.c. twice weekly for 8 weeks, dose not given, FIG. 39) was “significantly reduced the increased fibrosis”.

The record behind these values is patent US20240181007A1, “COMPOSITIONS AND METHODS FOR TREATING PULMONARY HYPERTENSION” (Acceleron Pharma Inc., priority 2021, published 2024).
